Structures can show the parent of a compound that is named as a salt.
Assays:
[1] = target: T1, human His-PIM1 [2-313] (Homo sapiens, UniProt P11309); experiment: PIM1 in-vitro mobility shift assay (Caliper LC3000, FL-Ahx-Bad phosphorylation); assay type: biochemical; conditions: 1.5 h; percent inhibition at 0.3 uM compound; read-out: PIM1 % I at 0.3 uM
T1 construct: purified human His-PIM1 [2-313] enzyme; His (N); purchased University of Dundee, Scotland; host or cells: baculovirus system
Text: PIM1 In-Vitro Mobility Shift Assay
(§1) One may determine the activity of purified human His-PIM1 [2-313] enzyme in-vitro using a mobility shift assay on a Caliper LC3000 reader (Caliper, Mass.), which measures fluorescence of a phosphorylated and unphosphorylated FL-Ahx-Bad (FITC-(AHX)RSRHSSYPAGT-COOH, Primm 200606-00289, Primm Biotech, Mass.) and calculates a ratiometric value to determine percent turnover. One may express PIM1 (University of Dundee, Scotland) in baculovirus system with a typical yield of >85% purity.
(§2) One determines phosphorylation of the FL-Ahx-Bad in the presence and absence of the compound of interest. One preincubates 5 µl of Enzyme/Substrate/adenosine triphosphate (ATP) mix consisting of 2.4 nM PIM1, 3.6 uM FL-Ahx-Bad, and 240 uM ATP in 1.2× buffer with 2 ul of compound for 20 minutes at 25° C. One initiates reactions with 5 ul of Metal mix consisting of 24 mM MgCl2 in 1.2× buffer and incubated at 25° C. for 90 minutes and stops the reactions by addition of 5 ul of Stop mix consisting of 100 mM HEPES, 121 mM ethylenediamine tetraacetic acid, 0.8% Coatin Reagent 3 (Caliper, Mass.), and 0.01% Tween. One detects phosphorylated and unphosphorylated substrate by a Caliper LC3000 reader (Caliper, Mass.) in the presence of separation buffer consisting of 100 mM HEPES, 16 mM ethylenediamine tetraacetic acid, 0.1% Coatin Reagent 3 (Caliper, Mass.), 0.015% Brij-35, 5% DMSO, and 5.6 mM MgCl2. One may use the following separation conditions for a Caliper LC3000: −1.0 PSI, −2000 V upstream voltage, −400 V downstream voltage, 0.2 second sample sip, 45 second post sip, 10% laser strength.
The table 1 below provides the percent inhibition of PIM1 at 0.3 micromolar for Examples provided herein. Several examples were tested more than once. Variations in the experimental outcomes, negative values, or values over 100% inhibition are presumably due to experimental error inherent in the assay.

[2] = target: T2, human His-PIM2 [23-299] (Homo sapiens, UniProt Q9P1W9); experiment: PIM2 in-vitro mobility shift assay (Caliper LC3000, FL-Ahx-Bad phosphorylation); assay type: biochemical; conditions: 1.5 h; percent inhibition at 0.3 uM compound; read-out: PIM2 % I at 0.3 uM
T2 construct: purified human His-PIM2 [23-299] enzyme; His (N); host or cells: E. coli
Text: PIM2 In-Vitro Mobility Shift Assay
as §1, with “His-PIM2 [23-299]” for “His-PIM1 [2-313]”, “PIM2 (produced at AstraZeneca, R&D Boston)” for “PIM1 (University of Dundee, Scotland)”, “E. coli cells” for “baculovirus system”, “>90%” for “>85%”
as §2, with “5 uL” for “5 µl”, “and 12” for “and 240”, “5 uL” for “5 ul”, “and incubates” for “and incubated”, “90 minutes. One” for “90 minutes and”, “stops” for “stops the”

T2 sequence (Q9P1W9 23-299): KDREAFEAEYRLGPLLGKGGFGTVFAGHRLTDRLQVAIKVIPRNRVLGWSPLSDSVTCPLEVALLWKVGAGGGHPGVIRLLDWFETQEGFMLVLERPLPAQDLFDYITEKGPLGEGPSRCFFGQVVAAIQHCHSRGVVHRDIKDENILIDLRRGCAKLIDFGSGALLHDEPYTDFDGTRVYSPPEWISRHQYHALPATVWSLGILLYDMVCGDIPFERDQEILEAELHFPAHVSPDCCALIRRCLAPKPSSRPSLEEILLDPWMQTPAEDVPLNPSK
T1 sequence (P11309 2-313): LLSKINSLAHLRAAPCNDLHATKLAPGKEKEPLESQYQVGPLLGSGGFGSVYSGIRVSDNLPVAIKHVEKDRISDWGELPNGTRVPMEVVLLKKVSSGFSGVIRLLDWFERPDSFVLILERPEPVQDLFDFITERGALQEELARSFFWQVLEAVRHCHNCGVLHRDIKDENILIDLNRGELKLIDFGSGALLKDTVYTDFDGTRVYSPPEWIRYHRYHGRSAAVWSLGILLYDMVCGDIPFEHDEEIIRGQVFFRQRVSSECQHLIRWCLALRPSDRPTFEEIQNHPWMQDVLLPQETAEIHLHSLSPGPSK

Row | SMILES | inhibition at 0.3 µM [1] [%] | inhibition at 0.3 µM [2] [%]
1 | CN(C)[C@H]1CCN(c2c(Br)cccc2/C=C2\SC(=O)NC2=O)C1 [Example 33, (S,Z)-5-(3-bromo-2-(3-(dimethylamino)pyrrolidin-1-yl)benzylidene)thiazolidine-2,4-dione hydrochloride] | > 95 | > 95
2 | C[C@@H]1CN(c2ccc(C(F)(F)F)cc2/C=C2\SC(=O)NC2=O)C[C@H](C)N1 [Example 34, (Z)-5-(2-((3S,5R)-3,5-dimethylpiperazin-1-yl)-5-(trifluoromethyl)benzylidene)thiazolidine-2,4-dione hydrochloride] | > 95 | 39.3
3 | COc1cccc(/C=C2\SC(=O)NC2=O)c1N1C[C@@H](C)N[C@@H](C)C1 [Example 35, (Z)-5-(2-((3S,5R)-3,5-dimethylpiperazin-1-yl)-3-methoxybenzylidene)thiazolidine-2,4-dione] | < 5 | < 5
4 | COc1cccc(/C=C2\SC(=O)NC2=O)c1N1CC[C@H](N(C)C)C1 [Example 36, (S,Z)-5-(2-(3-(dimethylamino)pyrrolidin-1-yl)-3-methoxybenzylidene)thiazolidine-2,4-dione] | > 95 | > 95
5 | C[C@@H]1CN(c2c(Cl)cccc2/C=C2\SC(=O)NC2=O)C[C@H](C)N1 [Example 37, (Z)-5-(3-chloro-2-((3S,5R)-3,5-dimethylpiperazin-1-yl)benzylidene)thiazolidine-2,4-dione] | 89.7 | 69.4
6 | CN(C)[C@H]1CCN(c2c(Cl)cccc2/C=C2\SC(=O)NC2=O)C1 [Example 38, (S,Z)-5-(3-chloro-2-(3-(dimethylamino)pyrrolidin-1-yl)benzylidene)thiazolidine-2,4-dione] | > 95 | 92.9
7 | COc1cc(/C=C2\SC(=O)NC2=O)c(N2CC[C@@H](N(C)C)C2)cc1OC [Example 39, (R,Z)-5-(2-(3-(dimethylamino)pyrrrolidin-1-yl)-4,5-dimethoxybenzylidene)thiazolidine-2,4-dione] | 89.4 | 57.3
8 | COc1cc(/C=C2\SC(=O)NC2=O)c(N2CC[C@H](N(C)C)C2)cc1OC [Example 40, (S,Z)-5-(2-(3-(dimethylamino)pyrrolidin-1-yl)-4,5-dimethoxybenzylidene)thiazolidine-2,4-dione] | > 95 | 89.8
9 | COc1cc(/C=C2\SC(=O)NC2=O)c(N2CCC(CO)CC2)cc1OC [Example 41, (5Z)-5-{2-[4-(hydroxymethyl)piperidin-1-yl]-4,5-dimethoxybenzylidene}-1-,3-thiazolidine-2,4-dione] | 74 | 25.1
10 | COc1cc(/C=C2\SC(=O)NC2=O)c(N2CCC(O)CC2)cc1OC [Example 42, (5Z)-5-[2-(4-hydroxypiperidine-1-yl)-4,5-dimethoxybenzylidene]-1,3-thiazolidine-2,4-dione] | 58.8 | 23.3
11 | COc1ccc(N2CCC(N(C)C)C2)c(/C=C2\SC(=O)NC2=O)c1 (stereo not drawn) [Example 43, (5Z)-5-{2-[3-(dimethylamino)pyrrolidin-1-yl]-5-methoxybenzylidene}-1,3-thiazolidine-2,4-dione] | 55.4 | 14.7
12 | COc1ccc(N2CCC(N(C)C)CC2)c(/C=C2\SC(=O)NC2=O)c1 [Example 44, (5Z)-5-{2-[4-(dimethylamino)piperidin-1-yl]-5-methoxybenzylidene}-1,3-thiazolidine-2,4-dione] | 83.8 | 46.7
13 | COc1cc(/C=C2\SC(=O)NC2=O)c(N2CCC(O)C2)cc1OC (stereo not drawn) [Example 45, (5Z)-5-[2-(3-hydroxypyrrolidin-1-yl)-4,5-dimethoxybenzylidene]-1,3-thiazolidine-2,4-dione] | 40.1 | 14.3
14 | COc1cc(/C=C2\SC(=O)NC2=O)c(N2CCCC2)cc1OC [Example 46, (5Z)-5-(4,5-dimethoxy-2-pyrrolidin-1-ylbenzylidene)-1,3-thiazolidine-2,4-dione] | 13.4 | 15.7
15 | CN(C)CCN(C)c1ccccc1/C=C1\SC(=O)NC1=O [Example 47, (5Z)-5-{2-[[2-(dimethylamino)ethyl](methyl)amino]benzylidene}-1,3-thiazolidine-2,4-dione] | 50 | 26.3
16 | CN(C)C1CCN(c2ccccc2/C=C2\SC(=O)NC2=O)C1 (stereo not drawn) [Example 48, (5Z)-5-{2-[3-(dimethylamino)pyrrolidin-1-yl]benzylidene}-1,3-thiazolidine-2,4-dione] | 84.4 | 41.3
17 | CN(C)C1CCN(c2ccccc2/C=C2\SC(=O)NC2=O)CC1 [Example 49, (5Z)-5-{2-[4-(dimethylamino)piperidin-1-yl]benzylidene}-1,3-thiazolidine-2,4-dione] | > 95 | 86.3
18 | CC(C)N1CCN(c2ccccc2/C=C2\SC(=O)NC2=O)CC1 [Example 50, (5Z)-5-[2-(4-isopropylpiperazin-1-yl)benzylidene]-1,3-thiazolidine-2,4-dione] | 93.7 | 45.4
19 | COc1cc(/C=C2\SC(=O)NC2=O)c(N(C)CCN(C)C)cc1OC [Example 51, (5Z)-5-{2-[[2-(dimethylamino)ethyl](methyl)amino]-4,5-dimethoxybenzylidene}-1,3-thiazolidine-2,4-dione] | 85.5 | 80.6
20 | COc1cc(/C=C2\SC(=O)NC2=O)c(N2CCC(N(C)C)C2)cc1OC (stereo not drawn) [Example 52, (5Z)-5-{2-[4-(dimethylamino)pyrrolidin-1-yl]-4,5-dimethoxybenzylidene}-1,3-thiazolidine-2,4-dione] | > 95 | 93.5
21 | COc1cc(/C=C2\SC(=O)NC2=O)c(N2CCN(C(C)C)CC2)cc1OC [Example 53, (5Z)-5-{2-(4-isopropylpiperazin-1-yl)-4,5-dimethoxybenzylidene}-thiazolidine-2,4-dione] | 92.3 | 82.1
22 | COc1cc(/C=C2\SC(=O)NC2=O)c(N2CCC(N(C)C)CC2)cc1OC [Example 54, (5Z)-5-{2-(4-(dimethylamino)piperidin-1-yl)-4,5-dimethoxybenzylidene}-thiazolidine-2,4-dione] | 88.1 | 73.1
23 | CC(C)(C)OC(=O)N1CCN(c2ccc(C(F)(F)F)cc2/C=C2\SC(=O)NC2=O)CC1 [Example 55, (Z)-tert-butyl 4-(2-((2,4-dioxothiazolidin-5-ylidene)methyl)-4-(trifluoromethyl)phenyl)piperazine-1-carboxylate] | 11 | < 5
24 | CN(C)C1CCN(c2ccc([N+](=O)[O-])cc2/C=C2\SC(=O)NC2=O)C1 (stereo not drawn) [Example 56, (Z)-5-(2-(3-(dimethylamino)pyrrolidin-1-yl)-5-nitrobenzylidene)thiazolidine-2,4-dione hydrochloride] | 90.7 | 33.5

— patent US8901307B2, “Chemical compounds 251” (AstraZeneca AB, priority 2008, dated 2014)
